Where two headings read alike, the source gives them in different places.
Tested on: FD (familial dysautomonia) IKBKAP minigene, exon 20 inclusion, in HEK293T cells
Assay: Primary splicing assay (FD IKBKAP minigene, Firefly/Renilla luciferase reporter in HEK293T)
Format: cell-based, human
Details: for Emax / EC (maximum kinetin efficacy): Homo sapiens, HEK-293T; for EC (maximum kinetin efficacy): HEK293T, read-out: ECk (compound concentration at which the maximum kinetin efficacy (200 μM) is reached); for ECk (RT-PCR): determined by RT-PCR, footnote a Firefly inhibitor, footnote b Renilla interference; for ECk, Firefly only: Renilla interference/Firefly only (footnote c)
Experimental: As used herein, the expression “ECk” refers to the compound concentration at which the maximum kinetin efficacy (200 μM) is reached.
Splicing analysis was made possible by using an FD (familial dysautomonia) IKBKAP minigene which contained exon 19 through exon 21, including intervening introns, and also the T→C Thymine to cytosine transition located 6 base-pairs from the end of IKBKAP exon 20; See SEQ ID NO:3 for the complete sequence of plasmid pcDNA3.1/V5HisTOPO with Renilla-Familial Dysautonomia minigene-Firefly. Firefly luciferase (SEQ ID NO:14) was utilized as a splicing reporter, located downstream of exon 21, and Renilla luciferase (SEQ ID NO:13) was used as a control, located upstream of exon 19. The sequence of exon 19 is presented as SEQ ID NO:7; the Intron between Exon 19 and Exon 20 is SEQ ID NO:8; exon 20 is SEQ ID NO:9; the intron between […]; exon 21 is SEQ ID NO: 11, and the spliced sequence of exons 19-20-21 is SEQ ID NO:12. HEK293T cells were plated in a 6-well plate 24 hours prior to transfection. Transfection was carried out using a mixture of Opti-MEM (GIBCO ref. 31985), IKBKAP minigene, and Fugene HID (PROMEGA ref. E2311), incubated in DMEM media containing HEK293T cells at 37° C. The ratio of Opti-MEM, minigene, and Fugene was kept at approximately 9:1.5:1, with a total volume of 150 μL of transfection mixture applied per well.
After 4 hours of transfection, the cells were then plated in a 96-well plate coated with poly-L-lysine (SIGMA cat.P4707) for treatment scheduled 24 hours later. […] After 24 hours of treatment, cells were washed in the poly-L-lysine coated 96-well plate using PBS and subsequently harvested using Passive Lysis Buffer (Promega cat.E196). Cell lysate was transferred to a black and white 96-well plate and analyzed for splicing correction using a Glomax luminometer (PROMEGA GloMax® 96 Microplate Luminometer w/Dual Injectors cat.E6521) and Promega Dual Glo Firefly and Stop and Glo Renilla reagents (Cat.E196). The compound's ability to correct splicing and promote exon 20 inclusion was marked by an increase in Firefly signal. Renilla signal, which is independent of exon 20 inclusion, was used to correct for cell number. Using the ratio of Firefly to Renilla signal, a dose response curve was produced, which referenced kinetin and DMSO Firefly/Renilla ratios as positive and negative controls, respectively.

[1] = max efficacy in Primary Assay, Firefly/Renilla ratio, kinetin and DMSO as positive and negative controls, 24 hours of treatment, read-out: Emax (%)
[2] = Firefly/Renilla ratio, 24 hours of treatment
[3] = max efficacy, value marked (RT-PCR), footnote a: Firefly inhibitor, read-out: Emax (%) (RT-PCR)
[4] = max efficacy, Firefly only, footnote c: Renilla interference/Firefly only, read-out: Emax (%) Firefly only

## Cc1cccc(CNc2ncnc3[nH]cnc23)c1 [(1)]
[1]
  Emax: 19%

## c1coc(CNc2ncnc3[nH]ccc23)c1 [(3)]
[1]
  Emax: 59%

## FC(F)(F)c1cccc(CCNc2ncnc3[nH]cnc23)c1 [(5)]
[2]
  EC (maximum kinetin efficacy): 63.5 µM

## c1c[nH]c(CNc2ncnc3[nH]cnc23)n1 [(6)]
[1]
  Emax: 21%

## c1cncc(CNc2ncnc3[nH]cnc23)c1 [(7)]
[1]
  Emax: 39%

## Cc1cc(CNc2ncnc3[nH]cnc23)on1 [(8)]
[1]
  Emax: 25%

## FC(F)(F)c1cccc(CNc2ncnc3[nH]cnc23)c1 [(10)]
[1]
  Emax: 21%

## Fc1cccc(CNc2ncnc3[nH]cnc23)c1 [(12)]
Max efficacy in Primary Assay, value flagged footnote a: Firefly inhibitor, read-out: Emax (%)
  Emax: 54%

## FC(F)(F)c1cccc(Nc2ncnc3[nH]cnc23)c1 [(13)]
[1]
  Emax: 16%

## Cc1ccccc1CNc1ncnc2[nH]cnc12 [(14)]
[1]
  Emax: 53%

## Fc1ccccc1Nc1ncnc2[nH]cnc12 [(15)]
[2]
  EC (maximum kinetin efficacy): 158 µM

## c1csc(CNc2ncnc3[nH]cnc23)n1 [(16)]
[1]
  Emax: 67%

## FC(F)(F)c1ccccc1Nc1ncnc2[nH]cnc12 [(18)]
[1]
  Emax: 39%

## Cn1cnc2c(NCc3ccco3)ncnc21 [(20)]
[1]
  Emax: 22%

## c1coc(CNc2ncnc3cc[nH]c23)c1 [(22)]
[1]
  Emax: 49%

## FC(F)(F)c1ccccc1CNc1ncnc2[nH]cnc12 [(23)]
[1]
  Emax: 34%

## Cc1cccc(CCNc2ncnc3[nH]cnc23)c1 [(25)]
[2]
  EC (maximum kinetin efficacy): 9.35 µM

## FC(F)(F)c1ccc(CCNc2ncnc3[nH]cnc23)cc1 [(26)]
[1]
  Emax: 66%

## Fc1cccc(CCNc2ncnc3[nH]cnc23)c1 [(28)]
[2]
  EC (maximum kinetin efficacy): 123 µM
[1]
  Emax: 98%

## Cc1ccccc1CCNc1ncnc2[nH]cnc12 [(32)]
[2]
  EC (maximum kinetin efficacy): 60 µM

## Fc1ccc(Nc2ncnc3[nH]cnc23)cc1 [(34)]
[2]
  EC (maximum kinetin efficacy): 26.6 µM

## COc1nc(NCc2ccco2)c2nc[nH]c2n1 [(36)]
[1]
  Emax: 18%

## Cc1cccc(Nc2ncnc3[nH]cnc23)c1 [(37)]
[2]
  EC (maximum kinetin efficacy): 36.5 µM

## c1ccc(-c2nc(NCc3ccco3)c3nc[nH]c3n2)cc1 [(38)]
[1]
  Emax: 5%

## c1cncc(CCNc2ncnc3[nH]cnc23)c1 [(41)]
[1]
  Emax: 35%

## FC(F)(F)c1nc(NCc2ccco2)c2nc[nH]c2n1 [(44)]
[1]
  Emax: 19%

## Cc1nc(NCc2ccco2)c2nc[nH]c2n1 [(45)]
[1]
  Emax: 56%

## N#Cc1nc(NCc2ccco2)c2nc[nH]c2n1 [(47)]
[1]
  Emax: 99%

## c1coc(CNc2ccnc3[nH]cnc23)c1 [(48)]
[2]
  EC (maximum kinetin efficacy): 72.8 µM

## COc1cccc(Nc2ncnc3[nH]cnc23)c1 [(49)]
[2]
  EC (maximum kinetin efficacy): 42.5 µM

## Cc1ccoc1CNc1ncnc2[nH]cnc12 [(54)]
[1]
  Emax: 13%

## Clc1nc(NCc2ccco2)c2cc[nH]c2n1 [(55)]
[2]
  EC (maximum kinetin efficacy): 1.71 µM
[1]
  Emax: 173%

## Clc1nc(NCc2ccco2)c2ccsc2n1 [(56)]
[2]
  EC (maximum kinetin efficacy): 8.23 µM
[1]
  Emax: 152%

## Clc1nc(NCc2ccco2)c2[nH]ccc2n1 [(57)]
[2]
  EC (maximum kinetin efficacy): 31.2 µM

## Fc1nc(NCc2ccco2)c2nc[nH]c2n1 [(58)]
[2]
  EC (maximum kinetin efficacy): 17.9 µM
[1]
  Emax: 155%

## CN(C)c1nc(NCc2ccco2)c2nc[nH]c2n1 [(60)]
[1]
  Emax: 13%

## c1coc(CNc2nc(C3CC3)nc3[nH]cnc23)c1 [(65)]
[1]
  Emax: 32%

## CC(C)c1nc(NCc2ccco2)c2nc[nH]c2n1 [(67)]
[1]
  Emax: 13%

## c1cc(CNc2ncnc3[nH]cnc23)ncn1 [(68)]
[1]
  Emax: 62%

## Clc1nc(NCc2ccco2)c2ncn(Cc3ccncc3)c2n1 [(72)]
[1]
  Emax: 39%

## OCCn1cnc2c(NCc3ccco3)nc(Cl)nc21 [(73)]
[2]
  EC (maximum kinetin efficacy): 17.1 µM
[1]
  Emax: 133%

## OCCn1ccc2c(NCc3ccco3)ncnc21 [(74)]
[1]
  Emax: 64%

## Clc1nc(NCc2ccco2)c2ncn(Cc3cccnc3)c2n1 [(76)]
[1]
  Emax: 69%

## OCCn1ccc2c(NCc3ccco3)nc(Cl)nc21 [(77)]
Max efficacy, value marked (RT-PCR), footnote b: Renilla interference, read-out: Emax (%) (RT-PCR)
  Emax: 321%
  ECk (RT-PCR): 1 to 10 µM

## Clc1nc(NCc2ccco2)c2ncn(Cc3ccccn3)c2n1 [(79)]
[1]
  Emax: 43%

## Fc1c[nH]c2nc(Cl)nc(NCc3ccco3)c12 [(81)]
[2]
  EC (maximum kinetin efficacy): 3.08 µM

## c1ccc(-c2c[nH]c3ncnc(NCc4ccco4)c23)cc1 [(83)]
[1]
  Emax: 4%

## Cc1c[nH]c2nc(Cl)nc(NCc3ccco3)c12 [(84)]
[3]
  Emax: 251%
  ECk (RT-PCR): 1 to 10 µM

## Clc1nc(NCc2ccco2)c2cn[nH]c2n1 [(85)]
[1]
  Emax: 96%

## Clc1nc(NCc2ccco2)c2c(-c3ccccc3)c[nH]c2n1 [(86)]
[1]
  Emax: 29%

## Cc1nc2ncnc(NCc3ccco3)c2[nH]1 [(87)]
[1]
  Emax: 46%

## Clc1nc(NCc2ccco2)c2nc(-c3cccnc3)[nH]c2n1 [(88)]
[1]
  Emax: 33%

## Clc1nc(NCc2ccco2)c2c(-c3ccncc3)c[nH]c2n1 [(89)]
[1]
  Emax: 21%

## Cc1nc2c(NCc3ccco3)nc(Cl)nc2[nH]1 [(90)]
[2]
  EC (maximum kinetin efficacy): 11.8 µM
[1]
  Emax: 159%

## Clc1nc(NCc2ccco2)c2nc(-c3ccccc3)[nH]c2n1 [(93)]
[1]
  Emax: 63%

## COCCn1ccc2c(NCc3ccco3)nc(Cl)nc21 [(94)]
[3]
  Emax: 180%
  ECk (RT-PCR): 10 to 31.6 µM

## Clc1nc(NCc2ccco2)c2nc(C3CC3)[nH]c2n1 [(95)]
[2]
  EC (maximum kinetin efficacy): 122 µM
[1]
  Emax: 103%

## c1coc(CNc2ncnc3[nH]c(C4CC4)nc23)c1 [(96)]
[1]
  Emax: 65%

## Clc1nc(NCc2ccco2)c2nc(Cc3ccncc3)[nH]c2n1 [(99)]
[1]
  Emax: 47%

## Clc1nc(NCc2ccco2)c2nc(N3CCOCC3)[nH]c2n1 [(102)]
[1]
  Emax: 52%

## OC1CN(c2nc3c(NCc4ccco4)nc(Cl)nc3[nH]2)C1 [(104)]
[2]
  EC (maximum kinetin efficacy): 12 µM
[1]
  Emax: 246%

## Cc1cn(CCO)c2nc(Cl)nc(NCc3ccco3)c12 [(105)]
[4]
  Emax: 134%
  ECk, Firefly only: 10.36 µM⁻¹

## O=C(O)c1ccc(CNc2nc(Cl)nc3[nH]ccc23)cc1 [(106)]
[1]
  Emax: 14%

## OCCCn1ccc2c(NCc3ccco3)nc(Cl)nc21 [(108)]
[3]
  Emax: 172%

## OCc1c[nH]c2nc(Cl)nc(NCc3ccco3)c12 [(109)]
[4]
  Emax: 128%
  ECk, Firefly only: 12.16 µM⁻¹

## Clc1nc(NCc2ccncn2)c2cc[nH]c2n1 [(110)]
[4]
  Emax: 193%
  ECk, Firefly only: 4.92 µM⁻¹

## OCCn1cc(F)c2c(NCc3ccco3)nc(Cl)nc21 [(111)]
[4]
  Emax: 191%
  ECk, Firefly only: 9.3 µM⁻¹

## Fc1c[nH]c2nc(Cl)nc(NCc3ccncn3)c12 [(112)]
[4]
  Emax: 111%
  ECk, Firefly only: 5.33 µM⁻¹

## CNc1nc2c(NCc3ccco3)nc(Cl)nc2[nH]1 [(113)]
[2]
  EC (maximum kinetin efficacy): 5.17 µM
[1]
  Emax: 132%

## Fc1c[nH]c2nc(Cl)nc(NCc3ccncc3)c12 [(114)]
[4]
  Emax: 174%
  ECk, Firefly only: 6.59 µM⁻¹

## Cc1cc2c(NCc3ccco3)nc(Cl)nc2[nH]1 [(115)]
[2]
  EC (maximum kinetin efficacy): 5.92 µM
[1]
  Emax: 174%

## Fc1c[nH]c2nc(Cl)nc(NCc3nccs3)c12 [(116)]
[2]
  EC (maximum kinetin efficacy): 31.8 µM
[1]
  Emax: 112%

## O=C(O)c1ccc(CNc2nc(Cl)nc3[nH]cc(F)c23)cc1 [(117)]
[1]
  Emax: 23%

## CN(C)c1nc2c(NCc3ccco3)nc(Cl)nc2[nH]1 [(118)]
[2]
  EC (maximum kinetin efficacy): 10.5 µM
[1]
  Emax: 112%

## Cc1cc2c(NCc3ccncc3)nc(Cl)nc2[nH]1 [(119)]
[2]
  EC (maximum kinetin efficacy): 11.2 µM
[1]
  Emax: 114%

## Cc1c[nH]c2nc(Cl)nc(NCc3ccncc3)c12 [(120)]
[2]
  EC (maximum kinetin efficacy): 2.75 µM
[1]
  Emax: 166%

## Cc1cn(CCO)c2nc(Cl)nc(NCc3ccncc3)c12 [(121)]
[2]
  EC (maximum kinetin efficacy): 17.3 µM
[1]
  Emax: 189%

## OCCn1ccc2c(NCc3ccncc3)nc(Cl)nc21 [(122)]
[2]
  EC (maximum kinetin efficacy): 5.65 µM
[1]
  Emax: 256%

## Cc1c[nH]c2nc(Cl)nc(NCc3nccs3)c12 [(123)]
[2]
  EC (maximum kinetin efficacy): 4.9 µM
[1]
  Emax: 92%

## COc1nc2c(NCc3ccco3)nc(Cl)nc2[nH]1 [(124)]
[2]
  EC (maximum kinetin efficacy): 2.41 µM
[1]
  Emax: 180%

## Cc1cn(CCO)c2nc(Cl)nc(NCc3nccs3)c12 [(125)]
[2]
  EC (maximum kinetin efficacy): 6.52 µM
[1]
  Emax: 225%
